Experiment in all cases: stopped-flow CO2 hydration
Assay type in all cases: biochemical

One test has as its target T1, hCA XII (Homo sapiens, UniProt O43570).
T1 construct: gene CA12; not described; transmembrane tumour-associated isoform
From the text: stopped-flow CO2 hydration on hCA XII

For another test, the target named is T2, hCA I (Homo sapiens, UniProt P00915).
T2 construct: gene CA1; not described; cytosolic isoform
From the text:
stopped-flow CO2 hydration on hCA I

The target in a further test is T3, hCA IX (Homo sapiens, UniProt Q16790).
T3 construct: gene CA9; not described; transmembrane tumour-associated isoform
From the text: stopped-flow CO2 hydration on hCA IX

For the next test, the target named is T4, hCA II (Homo sapiens, UniProt P00918).
T4 construct: gene CA2; not described; cytosolic isoform
From the text: stopped-flow CO2 hydration on hCA II

SMILES strings stand for the structures.

T2 sequence (P00915 2-261): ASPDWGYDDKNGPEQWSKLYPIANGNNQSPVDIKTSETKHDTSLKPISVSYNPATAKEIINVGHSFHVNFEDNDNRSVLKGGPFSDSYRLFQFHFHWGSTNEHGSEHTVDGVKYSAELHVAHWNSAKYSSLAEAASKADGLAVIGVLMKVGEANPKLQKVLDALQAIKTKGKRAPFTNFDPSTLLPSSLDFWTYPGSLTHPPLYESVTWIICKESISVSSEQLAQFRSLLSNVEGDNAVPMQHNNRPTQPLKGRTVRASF
T1 sequence (O43570 25-354): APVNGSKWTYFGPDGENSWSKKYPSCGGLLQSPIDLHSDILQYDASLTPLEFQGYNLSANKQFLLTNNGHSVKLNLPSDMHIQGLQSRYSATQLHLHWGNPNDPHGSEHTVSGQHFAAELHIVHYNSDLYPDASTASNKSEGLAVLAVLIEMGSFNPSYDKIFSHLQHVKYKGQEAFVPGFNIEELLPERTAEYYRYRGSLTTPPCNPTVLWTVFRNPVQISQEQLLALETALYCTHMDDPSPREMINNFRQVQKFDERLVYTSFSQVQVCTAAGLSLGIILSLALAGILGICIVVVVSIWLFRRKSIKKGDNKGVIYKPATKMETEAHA

For `CC(=NNc1ccc(S(N)(=O)=O)cc1)c1cc2ccccc2o1` [4a, 4–(2-(1-(Benzofuran-2-yl)ethylidene)hydrazineyl)benzenesulfonamide], the Ki (in general, a measure of affinity in units of concentration, obtained from inhibition or displacement) on hCA XII is 26.9 nM; on hCA I it was 163 nM; on hCA IX it was 33.3 nM; at hCA II it was 12.3 nM.

For `CC(=NNc1ccc(S(N)(=O)=O)cc1)c1cc2cc(Br)ccc2o1` [4b, 4–(2-(1–(5-Bromobenzofuran-2-yl)ethylidene)hydrazineyl)benzenesulfonamide], the inhibitory constant (Ki) on hCA XII was 38.8 nM; at hCA I, 92.7 nM; at hCA IX, 48.4 nM; at hCA II it was 73.5 nM.

Regarding `CC(=NNC(=O)c1ccc(S(N)(=O)=O)cc1)c1cc2ccccc2o1` [5a, 4–(2-(1-(Benzofuran-2-yl)ethylidene)hydrazine-1-carbonyl)benzenesulfonamide], the Ki on hCA XII stood at 10.1 nM; at hCA I, 37.4 nM; on hCA IX it was 60.4 nM; at hCA II it was 33.6 nM.

For `CC(=NNC(=O)c1ccc(S(N)(=O)=O)cc1)c1cc2cc(Br)ccc2o1` [5b, 4–(2-(1–(5-Bromobenzofuran-2-yl)ethylidene)hydrazine-1-carbonyl)benzenesulfonamide], the Ki was found to be 32.5 nM at hCA XII, 63.9 nM at hCA I, 27.7 nM on hCA IX and 44.2 nM on hCA II.

Take `Cc1ccc(S(=O)(=O)CC(=NNc2ccc(S(N)(=O)=O)cc2)c2cc3ccccc3o2)cc1` [9a, 4–(2-(1-(Benzofuran-2-yl)-2-tosylethylidene)hydrazineyl)benzenesulfonamide]: the inhibition constant Ki on hCA XII was 49.7 nM; at hCA I, 1290 nM; at hCA IX, 32.8 nM; at hCA II, 644 nM.

`NS(=O)(=O)c1ccc(NN=C(CS(=O)(=O)c2ccccc2)c2cc3cc(Br)ccc3o2)cc1` [9b, 4–(2-(1–(5-Bromobenzofuran-2-yl)-2-(phenylsulfonyl)ethylidene)hydrazineyl)benzenesulfonamide]: the Ki on hCA XII was determined as 33.4 nM; on hCA I it was 2160 nM; on hCA IX it was 44.6 nM; at hCA II, 888 nM.

On to `Cc1ccc(S(=O)(=O)CC(=NNc2ccc(S(N)(=O)=O)cc2)c2cc3cc(Br)ccc3o2)cc1` [9c, 4–(2-(1–(5-Bromobenzofuran-2-yl)-2-tosylethylidene)hydrazineyl)benzenesulfonamide], for which the Ki on hCA XII came to 16.7 nM; at hCA I, 2500 nM; at hCA IX it was 10 nM; on hCA II it was 571 nM.

Consider `NS(=O)(=O)c1ccc(C(=O)NN=C(CS(=O)(=O)c2ccccc2)c2cc3ccccc3o2)cc1` [10a, 4–(2-(1-(Benzofuran-2-yl)-2-(phenylsulfonyl)ethylidene)hydrazine-1-carbonyl)benzenesulfonamide], for which the Ki at hCA XII was 71.8 nM; at hCA I, 4620 nM; on hCA IX, 76.6 nM; on hCA II, 354 nM.

In the case of `Cc1ccc(S(=O)(=O)CC(=NNC(=O)c2ccc(S(N)(=O)=O)cc2)c2cc3ccccc3o2)cc1` [10b, 4–(2-(1-(Benzofuran-2-yl)-2-tosylethylidene)hydrazine-1-carbonyl)benzenesulfonamide], the Ki at hCA XII is 38.9 nM; at hCA I, 3920 nM; on hCA IX, 51.1 nM; on hCA II, 229 nM.

For the compound `NS(=O)(=O)c1ccc(C(=O)NN=C(CS(=O)(=O)c2ccccc2)c2cc3cc(Br)ccc3o2)cc1` [10c, 4–(2-(1–(5-Bromobenzofuran-2-yl)-2-(phenylsulfonyl)ethylidene)hydrazine-1-carbonyl)benzenesulfonamide], the Ki on hCA XII came out at 66.8 nM; at hCA I it was 1820 nM; at hCA IX, 85.4 nM; at hCA II, 439 nM.

As for `Cc1ccc(S(=O)(=O)CC(=NNC(=O)c2ccc(S(N)(=O)=O)cc2)c2cc3cc(Br)ccc3o2)cc1` [10d, 4–(2-(1–(5-Bromobenzofuran-2-yl)-2-tosylethylidene)hydrazine-1-carbonyl)benzenesulfonamide], the Ki on hCA XII was 27.5 nM; at hCA I, 828 nM; at hCA IX, 97.5 nM; at hCA II, 727 nM.

The record behind these values is article PMC6913630, “Novel benzofuran-based sulphonamides as selective carbonic anhydrases IX and XII inhibitors: synthesis and in vitro biological evaluation” (Journal of Enzyme Inhibition and Medicinal Chemistry, 2019).
